According to US8497279B2, “Treatment for discoid lupus” (Rigel Pharmaceuticals, Inc., priority 2011, dated 2013):
Where a name gives a salt, the structure may show the parent alone.

How the values were obtained:
JAK1 and JAK3 kinases = test: Ramos B-cell line stimulated with IL-4, CD23 upregulation (FACS); assay type: cell-based, human; conditions: Ramos B cells, IL-4 50 units/mL, 20-24 hours, CD23 staining; read-out: Example 3 IC50
Procedure: One means of assaying for JAK inhibition is detection of the effect of compounds I and II on the upregulation of downstream gene products. In the Ramos/IL4 assay, B-cells are stimulated with the cytokine Interleukin-4 (IL-4) leading to the activation of the JAK/Stat pathway through phosphorylation of the JAK family kinases, JAK1 and JAK3, which in turn phosphorylate and activate the transcription factor Stat-6. […] Twenty to 24 hours post stimulation, cells are stained for upregulation of CD23 and analyzed using flow cytometry (FACS). […] An exemplary assay of this type is described in greater detail below. B-cells stimulated with cytokine Interleukin-4 (IL-4) activate the JAK/Stat pathway through phosphorylation of the JAK family kinases, JAK-1 and JAK-3, which in turn phosphorylate and activate the transcription factor Stat-6. […] To study the effect of inhibitors on the JAK family kinases, human Ramos B cells are stimulated with human IL-4. The Ramos B-cell line was acquired from [NT] No. CRL-1596). The cells were cultured in RPMI 1640 (Cellgro, MediaTech, Inc., Herndon, Va., Cat No. 10-040-CM) with 10% fetal bovine serum (FBS), heat inactivated (JRH Biosciences, Inc, Lenexa, Kans., Cat No. 12106-500M) according to ATCC propagation protocol. Cells were maintained at a density of 3.5×10^5. The day before the experiment, Ramos B-cells were diluted to 3.5×10^5 cells/mL to ensure that they were in a logarithmic growth phase. Cells were spun down and suspended in RPMI with 5% serum. 5×10^4 cells were used per point in a 96-well tissue culture plate. Cells were pre-incubated with compound or DMSO (Sigma-Aldrich, St. Louis, Mo., Cat No. D2650) vehicle control for 1 hour in a 37° C. incubator. Cells were then stimulated with IL-4 (Peprotech Inc., Rocky Hill, N.J., Cat No. 200-04) for a final concentration of 50 units/mL for 20-24 hours. Cells were then spun down and stained with anti-CD23-PE(BD Pharmingen, San Diego, Calif., Cat No. 555711) and analyzed by FACS. Detection was performed using a BD LSR I System Flow Cytometer, purchased from Becton Dickinson Biosciences of San Jose, Calif.

JAK1/JAK2 pathway = test: A549 epithelial line stimulated with IFNγ, ICAM-1 surface expression (FACS); assay type: cell-based, human; conditions: A549 cells, IFNγ 75 ng/mL, 24 hours, ICAM-1 expression; read-out: Example 5 IC50
Text: The JAK activity of the compounds described herein may also be characterized by assaying the effect of compounds I and II described herein on A549 lung epithelial cells and U937 cells. A549 lung epithelial cells and U937 cells up-regulate ICAM-1 (CD54) surface expression in response to a variety of different stimuli. Therefore, using ICAM-1 expression as readout, test compound effects on different signaling pathways can be assessed in the same cell type. Stimulation with IL-1β through the IL-1β receptor activates the TRAF6/NFκB pathway resulting in up-regulation of ICAM-1. IFNγ induces ICAM-1 up-regulation through activation of the JAK1/JAK2 pathway. The up-regulation of ICAM-1 can be quantified by flow cytometry across a compound dose curve and EC50 values are calculated. […]
A549 lung epithelial cells up-regulate ICAM-1 (CD54) surface expression in response to a variety of different stimuli. Therefore, using ICAM-1 expression as readout, compound effects on different signaling pathways can be assessed in the same cell type. […] In this example, the up-regulation of ICAM-1 by IFNγ was assessed. […]
On day three, the cell media was removed and the cells were washed with 200 μL PBS (phosphate buffered saline). […] Cells were washed with ice cold FACS buffer (PBS+2% FBS) and surface ICAM-1 expression was analyzed by flow cytometry. […]

How did the IC50 (JAK1 and JAK3 kinases) turn out when C#CCOc1ccc(Nc2nc(Nc3ccc(C)c(S(=O)(=O)NC(=O)CC)c3)ncc2F)cc1 [VI, 5-Fluoro-N2-[4-methyl-3-(N-propionylaminosulfonyl)phenyl]-N4-[4-(2-propynyloxy)phenyl]-2,4-pyrimidinediamine Arginine Salt] was run?
Its IC50 is 0.104 µM.

And the IC50 (JAK1/JAK2 pathway)?
Its IC50 is 4.97 µM.
